Bridge positions count the residues as written; N and C are the ends. Square brackets hold non-standard residues; d marks the D form. Peptide text beside a SMILES is read from it. * marks the point of attachment. ξ: configuration not given here. Phe(4-CONH2) = NC(=O)c1ccc(C[C@H](N)C(=O)O)cc1; Bip = N[C@@H](Cc1ccc(-c2ccccc2)cc1)C(=O)O; Phe(4-NH2) = Nc1ccc(C[C@H](N)C(=O)O)cc1; Phe(3-Me) = Cc1cccc(C[C@H](N)C(=O)O)c1; hArg = N=C(N)NCCCC[C@H](N)C(=O)O; Cha = N[C@@H](CC1CCCCC1)C(=O)O; Cit = NC(=O)NCCC[C@H](N)C(=O)O; aThr = C[C@H](O)[C@H](N)C(=O)O; Thr(3ξ) = CC(O)[C@H](N)C(=O)O; NMeNle = CCCC[C@H](NC)C(=O)O; Dap(Me) = CNC[C@H](N)C(=O)O; 12Ado = NCCCCCCCCCCCC(=O)O; Carboxymethyl = O=C(O)C*; Orn = NCCC[C@H](N)C(=O)O; Aun = NCCCCCCCCCCC(=O)O; Dab = NCC[C@H](N)C(=O)O; Dap = NC[C@H](N)C(=O)O; Piv = CC(C)(C)C(=O)*
Target: T1, PD-1/PD-L1 interaction (PE-labeled human PD-L1-Ig binding to Jurkat cell line over-expressing human PD-1) (Homo sapiens, UniProt Q15116)
T1 construct: expressed in transfected cells; host or cells: Jurkat
Assay: Jurkat-PD-1 Cell Binding High-Content Screening Assay (CBA)
Assay type: cell-based
Conditions: Jurkat cell line over-expressing human PD-1; PE-labeled PD-L1-Ig 20 nM final; read-out: Jurkat hPD1-PDL1 IC50
How it was run: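 First, compound is added to PD-1-expressing Jurkat cells in serum-containing DMEM and left 2 h at 37° C. Next, PE-conjugated PD-L1-Ig is introduced at 20 nM final concentration for 1 hour. Finally, cells are fixed in 4% paraformaldehyde with Hoechst 33342, washed and imaged.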

T1 sequence (Q15116 25-288): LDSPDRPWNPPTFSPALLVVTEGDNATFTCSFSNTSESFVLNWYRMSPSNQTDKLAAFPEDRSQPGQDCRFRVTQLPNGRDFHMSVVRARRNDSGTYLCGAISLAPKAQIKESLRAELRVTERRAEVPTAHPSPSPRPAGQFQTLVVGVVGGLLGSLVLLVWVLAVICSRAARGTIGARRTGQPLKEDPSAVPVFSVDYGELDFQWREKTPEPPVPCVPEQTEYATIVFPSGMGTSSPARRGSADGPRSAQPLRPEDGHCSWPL

IC50	Compound
0.0278 µM	Cc1cccc(C[C@@H]2NC(=O)[C@H](CC(=O)O)NC(=O)[C@H](Cc3ccc(OCC(=O)O)cc3)NC(=O)[C@H](CN)NC(=O)CSC[C@@H](C(=O)N[C@@H](CCCN)C(=O)N[C@@H](CO)C(=O)NCCCCCCCCCCCC(=O)O)NC(=O)[C@H](CCCN)NC(=O)[C@H](C(C)C)NC(=O)[C@H](CC3CCCCC3)NC(=O)[C@H](CCN)NC(=O)[C@@H](CC(C)C)NC(=O)[C@H](CCCN)NC(=O)[C@H](Cc3ccc(O)cc3)NC(=O)[C@H](Cc3ccc(-c4ccccc4)cc3)NC(=O)[C@H](C(C)C)NC2=O)c1 [Compound 3589] ({CH2CO}-[Dap]Y(Carboxymethyl)D[Phe(3-Me)]V[Bip]Y[Orn][dL][Dab][Cha]V[Orn]C[Orn]S[12Ado]-OH; thioether N-14)
0.0065 µM	CC(=O)NCCCC[C@@H]1NC(=O)[C@H](Cc2ccc(-c3ccccc3)cc2)NC(=O)[C@H](C(C)C)NC(=O)[C@H](Cc2cccc(C)c2)NC(=O)[C@H](CC(=O)O)NC(=O)[C@H](Cc2ccc(OCC(=O)O)cc2)NC(=O)[C@H](CN)NC(=O)CSC[C@@H](C(=O)N[C@@H](CCN)C(=O)N[C@@H](CO)C(=O)NCCCCCCCCCCCC(=O)O)NC(=O)[C@H](CCCN)NC(=O)[C@H](C(C)C)NC(=O)[C@H](CC2CCCCC2)NC(=O)[C@H](CCN)NC(=O)[C@@H](CC(C)C)NC(=O)[C@H](CCCN)NC1=O [Compound 3590] ({CH2CO}-[Dap]Y(Carboxymethyl)D[Phe(3-Me)]V[Bip]K(Ac)[Orn][dL][Dab][Cha]V[Orn]C[Dab]S[12Ado]-OH; thioether N-14)
0.0239 µM	Cc1cccc(C[C@@H]2NC(=O)[C@H](CC(=O)O)NC(=O)[C@H](Cc3ccc(OCC(=O)O)cc3)NC(=O)[C@H](CCCCNC(=N)N)NC(=O)CSC[C@@H](C(=O)N[C@@H](CCCN)C(=O)N[C@@H](CO)C(=O)NCCCCCCCCCCCC(=O)O)NC(=O)[C@H](CO)NC(=O)[C@H](C(C)O)NC(=O)[C@H](CC3CCCCC3)NC(=O)[C@H](CCN)NC(=O)[C@@H](CC(C)C)NC(=O)[C@H](CCCN)NC(=O)[C@H](CCCNC(N)=O)NC(=O)[C@H](Cc3ccc(-c4ccccc4)cc3)NC(=O)[C@H](C(C)C)NC2=O)c1 (stereo partly drawn) [Compound 3591] ({CH2CO}-[hArg]Y(Carboxymethyl)D[Phe(3-Me)]V[Bip][Cit][Orn][dL][Dab][Cha][Thr(3ξ)]SC[Orn]S[12Ado]-OH; thioether N-14)
0.0086 µM	CNC[C@@H]1NC(=O)CSC[C@@H](C(=O)N[C@@H](CCN)C(=O)NCCCCCCCCCCCC(=O)O)NC(=O)[C@H](CCCN)NC(=O)[C@H](C(C)C)NC(=O)[C@H](CC2CCCCC2)NC(=O)[C@H](CCN)NC(=O)[C@@H](CC(C)C)NC(=O)[C@H](CCCN)NC(=O)[C@H](Cc2ccc(O)cc2)NC(=O)[C@H](Cc2ccc(-c3ccccc3)cc2)NC(=O)[C@H](C(C)C)NC(=O)[C@H](Cc2cccc(C)c2)NC(=O)[C@H](CC(=O)O)NC(=O)[C@H](Cc2ccc(OCC(=O)O)cc2)NC1=O [Compound 3592] ({CH2CO}-[Dap(Me)]Y(Carboxymethyl)D[Phe(3-Me)]V[Bip]Y[Orn][dL][Dab][Cha]V[Orn]C[Dab][12Ado]-OH; thioether N-14)
0.363 µM	Cc1cccc(C[C@@H]2NC(=O)[C@H](CC(=O)O)NC(=O)[C@H](Cc3ccc(OCC(=O)O)cc3)NC(=O)[C@H](CN)NC(=O)CSC[C@@H](C(=O)N[C@@H](CCN)C(=O)NCCCCCCCCCCC(=O)O)NC(=O)[C@H](C(C)O)NC(=O)[C@H](C(C)C)NC(=O)[C@H](CC3CCCCC3)NC(=O)[C@H](CCN)NC(=O)[C@@H](CC(C)C)NC(=O)[C@H](CCCN)NC(=O)[C@H](CCCNC(N)=O)NC(=O)[C@H](Cc3ccc(-c4ccccc4)cc3)NC(=O)[C@H](CCCNC(N)=O)NC2=O)c1 (stereo partly drawn) [Compound 3593] ({CH2CO}-[Dap]Y(Carboxymethyl)D[Phe(3-Me)][Cit][Bip][Cit][Orn][dL][Dab][Cha]V[Thr(3ξ)]C[Dab][Aun]-OH; thioether N-14)
0.0162 µM	CNC[C@@H]1NC(=O)CSC[C@@H](C(=O)N[C@@H](CCN)C(=O)NCCCCCCCCCCC(=O)O)NC(=O)[C@H](C(C)O)NC(=O)[C@H](C(C)C)NC(=O)[C@H](CC2CCCCC2)NC(=O)[C@H](CCN)NC(=O)[C@@H](CC(C)C)NC(=O)[C@H](CCCN)NC(=O)[C@H](CCCCNC(C)=O)NC(=O)[C@H](Cc2ccc(-c3ccccc3)cc2)NC(=O)[C@H](CCCCNC(C)=O)NC(=O)[C@H](Cc2cccc(C)c2)NC(=O)[C@H](CC(=O)O)NC(=O)[C@H](Cc2ccc(OCC(=O)O)cc2)NC1=O (stereo partly drawn) [Compound 3594] ({CH2CO}-[Dap(Me)]Y(Carboxymethyl)D[Phe(3-Me)]K(Ac)[Bip]K(Ac)[Orn][dL][Dab][Cha]V[Thr(3ξ)]C[Dab][Aun]-OH; thioether N-14)
0.151 µM	Cc1cccc(C[C@@H]2NC(=O)[C@H](CC(=O)O)NC(=O)[C@H](Cc3ccc(OCC(=O)O)cc3)NC(=O)[C@H](CN)NC(=O)CSC[C@@H](C(=O)N[C@@H](CCN)C(=O)NCCCCCCCCCCC(=O)O)NC(=O)[C@H]([C@H](C)O)NC(=O)[C@H](C(C)O)NC(=O)[C@H](CC3CCCCC3)NC(=O)[C@H](CCN)NC(=O)[C@@H](CC(C)C)NC(=O)[C@H](CCCN)NC(=O)[C@H](Cc3ccc(O)cc3)NC(=O)[C@H](Cc3ccc(-c4ccccc4)cc3)NC(=O)[C@H](Cc3ccc(OCC(=O)O)cc3)NC2=O)c1 (stereo partly drawn) [Compound 3595] ({CH2CO}-[Dap]Y(Carboxymethyl)D[Phe(3-Me)]Y(Carboxymethyl)[Bip]Y[Orn][dL][Dab][Cha][Thr(3ξ)][aThr]C[Dab][Aun]-OH; thioether N-14)
0.162 µM	CNC[C@@H]1NC(=O)CSC[C@@H](C(=O)N[C@@H](CCN)C(=O)NCCCCCCCCCCC(=O)O)NC(=O)[C@H](CO)NC(=O)[C@H](C(C)O)NC(=O)[C@H](CC2CCCCC2)NC(=O)[C@H](CCN)NC(=O)[C@@H](CC(C)C)NC(=O)[C@H](CCCN)NC(=O)[C@H](Cc2ccc(O)cc2)NC(=O)[C@H](Cc2ccc(-c3ccccc3)cc2)NC(=O)[C@H](CCCCNC(=O)C(C)(C)C)NC(=O)[C@H](Cc2cccc(C)c2)NC(=O)[C@H](CC(=O)O)NC(=O)[C@H](Cc2ccc(OCC(=O)O)cc2)NC1=O (stereo partly drawn) [Compound 3596] ({CH2CO}-[Dap(Me)]Y(Carboxymethyl)D[Phe(3-Me)]K(Piv)[Bip]Y[Orn][dL][Dab][Cha][Thr(3ξ)]SC[Dab][Aun]-OH; thioether N-14)
0.0138 µM	CCCC[C@H]1C(=O)N[C@@H](Cc2ccc(OCC(=O)O)cc2)C(=O)N[C@@H](CC(=O)O)C(=O)N[C@@H](Cc2cccc(C)c2)C(=O)N[C@@H](Cc2ccc(OCC(=O)O)cc2)C(=O)N[C@@H](Cc2ccc(-c3ccccc3)cc2)C(=O)N[C@@H](Cc2ccc(OCC(=O)O)cc2)C(=O)N[C@@H](CCCN)C(=O)N[C@H](CC(C)C)C(=O)N[C@@H](CCN)C(=O)N[C@@H](CC2CCCCC2)C(=O)N[C@@H](C(C)C)C(=O)N[C@@H](CO)C(=O)N[C@H](C(=O)N[C@@H](CCN)C(=O)NCCCCCCCCCCC(=O)O)CSCC(=O)N1C [Compound 3598] ({CH2CO}-[NMeNle]Y(Carboxymethyl)D[Phe(3-Me)]Y(Carboxymethyl)[Bip]Y(Carboxymethyl)[Orn][dL][Dab][Cha]VSC[Dab][Aun]-OH; thioether N-14)
0.0049 µM	Cc1cccc(C[C@@H]2NC(=O)[C@H](CC(=O)O)NC(=O)[C@H](Cc3ccc(OCC(=O)O)cc3)NC(=O)[C@H](CCN)NC(=O)CSC[C@@H](C(=O)N[C@@H](CCCCN)C(=O)NCCCCCCCCCCC(=O)O)NC(=O)[C@H](CCCCN)NC(=O)[C@H](C(C)O)NC(=O)[C@H](CC3CCCCC3)NC(=O)[C@H](CCN)NC(=O)[C@@H](CC(C)C)NC(=O)[C@H](CCCN)NC(=O)[C@H](Cc3ccc(O)cc3)NC(=O)[C@H](Cc3ccc(-c4ccccc4)cc3)NC(=O)[C@H](C(C)C)NC2=O)c1 (stereo partly drawn) [Compound 3599] ({CH2CO}-[Dab]Y(Carboxymethyl)D[Phe(3-Me)]V[Bip]Y[Orn][dL][Dab][Cha][Thr(3ξ)]KCK[Aun]-OH; thioether N-14)
0.0401 µM	Cc1cccc(C[C@@H]2NC(=O)[C@H](CC(=O)O)NC(=O)[C@H](Cc3ccc(OCC(=O)O)cc3)NC(=O)[C@H](Cc3ccc(C(N)=O)cc3)NC(=O)CSC[C@@H](C(=O)N[C@@H](CCCCN)C(=O)NCCCCCCCCCCC(=O)O)NC(=O)[C@H](CCCCN)NC(=O)[C@H](C(C)O)NC(=O)[C@H](CC3CCCCC3)NC(=O)[C@H](CCN)NC(=O)[C@@H](CC(C)C)NC(=O)[C@H](CCCN)NC(=O)[C@H](Cc3ccc(O)cc3)NC(=O)[C@H](Cc3ccc(-c4ccccc4)cc3)NC(=O)[C@H](C(C)C)NC2=O)c1 (stereo partly drawn) [Compound 3600] ({CH2CO}-[Phe(4-CONH2)]Y(Carboxymethyl)D[Phe(3-Me)]V[Bip]Y[Orn][dL][Dab][Cha][Thr(3ξ)]KCK[Aun]-OH; thioether N-14)
0.038 µM	CC(=O)Nc1ccc(C[C@@H]2NC(=O)[C@H](Cc3cccc(C)c3)NC(=O)[C@H](CC(=O)O)NC(=O)[C@H](Cc3ccc(OCC(=O)O)cc3)NC(=O)[C@H](CN)NC(=O)CSC[C@@H](C(=O)N[C@@H](CCN)C(=O)NCCCCCCCCCCC(=O)O)NC(=O)[C@H](C(C)O)NC(=O)[C@H](C(C)C)NC(=O)[C@H](CC3CCCCC3)NC(=O)[C@H](CCN)NC(=O)[C@@H](CC(C)C)NC(=O)[C@H](CCCN)NC(=O)[C@H](Cc3ccc(NC(C)=O)cc3)NC(=O)[C@H](Cc3ccc(-c4ccccc4)cc3)NC2=O)cc1 (stereo partly drawn) [Compound 3601] ({CH2CO}-[Dap]Y(Carboxymethyl)D[Phe(3-Me)][Phe(4-NH2)](Ac)[Bip][Phe(4-NH2)](Ac)[Orn][dL][Dab][Cha]V[Thr(3ξ)]C[Dab][Aun]-OH; thioether N-14)
0.0231 µM	CC(=O)NCCCC[C@@H]1NC(=O)[C@H](Cc2cccc(C)c2)NC(=O)[C@H](CC(=O)O)NC(=O)[C@H](Cc2ccc(OCC(=O)O)cc2)NC(=O)[C@H](Cc2ccc(NC(C)=O)cc2)NC(=O)CSC[C@@H](C(=O)N[C@@H](CCN)C(=O)NCCCCCCCCCCC(=O)O)NC(=O)[C@H](C(C)O)NC(=O)[C@H](C(C)C)NC(=O)[C@H](CC2CCCCC2)NC(=O)[C@H](CCN)NC(=O)[C@@H](CC(C)C)NC(=O)[C@H](CCCN)NC(=O)[C@H](CCCCNC(C)=O)NC(=O)[C@H](Cc2ccc(-c3ccccc3)cc2)NC1=O (stereo partly drawn) [Compound 3602] ({CH2CO}-[Phe(4-NH2)](Ac)Y(Carboxymethyl)D[Phe(3-Me)]K(Ac)[Bip]K(Ac)[Orn][dL][Dab][Cha]V[Thr(3ξ)]C[Dab][Aun]-OH; thioether N-14)

Source: patent US20260022142A1, “MACROCYCLIC IMMUNOMODULATORS” (Bristol-Myers Squibb Company, priority 2022, published 2026)
